Experimental findings from patent publication US20030125234A1, “Alteration of protein stability” (priority 2001, published 2003) are described below.

Assay type in all cases: biochemical
Assay [1] addresses T1, yeast alcohol dehydrogenase (ADH) (Saccharomyces cerevisiae, UniProt P00330).
T1 construct: purchased Sigma
T1 sequence (P00330 2-348 limits assumed): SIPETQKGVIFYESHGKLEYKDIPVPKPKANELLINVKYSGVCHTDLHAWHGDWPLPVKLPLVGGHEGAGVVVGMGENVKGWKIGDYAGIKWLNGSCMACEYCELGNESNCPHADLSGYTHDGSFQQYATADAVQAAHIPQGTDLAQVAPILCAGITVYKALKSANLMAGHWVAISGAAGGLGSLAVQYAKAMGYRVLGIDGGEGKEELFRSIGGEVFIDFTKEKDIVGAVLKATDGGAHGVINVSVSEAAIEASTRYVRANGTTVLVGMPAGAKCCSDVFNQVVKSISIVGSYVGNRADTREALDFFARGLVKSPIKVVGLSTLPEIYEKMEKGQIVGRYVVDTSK
Description: ADH oxidation-induced aggregation (turbidity at 360 nm), Cu(OP)2. Particulars: for inhibition index: ADH 1 mg/mL, 37° C., Cu(OP)2; for inhibition of ADH aggregation, in words: FIG. 1. The method in brief:
(§1)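 Aggregation is scored as optical density at 360 nm over 1 h relative to untreated protein. Porcine somatotropin (1.27 mg/mL) is heated to 60° C in PEG 8000 (20 mg/mL); ADH (1 mg/mL) is oxidized with 7.76E-5 M Cu(OP)2 at 37° C; lysozyme and HLF (0.4 mg/mL) are reduced with 1.27E-4 M DTT at 25° C and 43° C.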

Assay [2] concerns the target T2, human apolactoferrin (HLF) (Homo sapiens, UniProt P02788).
T2 construct: purchased Sigma
Description: HLF aggregation (turbidity at 360 nm) induced by DTT. The conditions noted are these: for inhibition index: HLF 0.4 mg/mL, 43° C., DTT, head 10,000×, standard deviation in parenthesis. The method in brief:
as §1

For the next assay, the target named is T3, Bovine insulin (Bos taurus, UniProt P01317).
T3 construct: purchased Sigma, St. Louis, Mo., USA
Description: Insulin aggregation (turbidity at 360 nm) induced by DTT. Particulars: for inhibition index: Insulin 0.25 mg/mL, 25° C., DTT, compound 100×, standard deviation in parenthesis. The method in brief: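 Bovine insulin was dissolved in pH 7.0 PBS (50 mM sodium biphosphate, 100 mM sodium chloride) at 0.25 mg/mL (4.39E-5 M). Test compounds were added, then aggregation was induced with 20 μL of 1 M DTT […]. Turbidity at 360 nm was followed for 1 hour at 25° C. and compared with insulin lacking the compound.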

For assay [3], the target named is T4, porcine heart citrate synthase (CS) (Sus scrofa, UniProt P00889).
T4 construct: porcine heart citrate synthase (CS); from tissue; host or cells: porcine heart
T4 sequence (P00889 28-464): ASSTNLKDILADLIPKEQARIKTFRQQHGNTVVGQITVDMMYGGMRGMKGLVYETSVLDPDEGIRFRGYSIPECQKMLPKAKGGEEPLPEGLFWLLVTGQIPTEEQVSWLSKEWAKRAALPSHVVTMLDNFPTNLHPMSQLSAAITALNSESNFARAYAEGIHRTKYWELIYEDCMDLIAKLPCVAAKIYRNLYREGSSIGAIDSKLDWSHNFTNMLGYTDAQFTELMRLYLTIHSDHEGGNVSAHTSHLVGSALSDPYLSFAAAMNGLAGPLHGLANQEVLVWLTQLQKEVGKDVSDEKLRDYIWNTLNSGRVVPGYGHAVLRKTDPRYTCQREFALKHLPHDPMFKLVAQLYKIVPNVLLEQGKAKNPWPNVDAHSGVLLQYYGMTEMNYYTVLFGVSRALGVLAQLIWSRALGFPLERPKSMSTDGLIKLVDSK
Description: Citrate synthase thermal aggregation (turbidity at 360 nm). The conditions noted are these: for inhibition index: CS 96 μg/mL, 45° C., standard deviation in parenthesis. The method in brief: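 Heat-induced aggregation followed as OD360 for 1 h, cycled every 30 s: citrate synthase 96 μg/mL in HEPES/KCl/(NH4)2SO4 buffer pH 7.8 at 45° C; FGF-1 50 μg/mL in phosphate/NaCl pH 7.2 at 50° C. Rate taken as maximum slope of OD versus time, compared with protein without additive.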

Where [4] appears, read: compound 10,000X molar excess, Infinite = complete inhibition of aggregation over one hour.
The mark [5] stands for this setting: compound 1,000X, standard deviation in parenthesis.

Entries after “also recorded” stand apart in the source; their conditions may differ. Residues, ends and D or L forms follow the SMILES beside them.

T2 sequence (P02788 20-710): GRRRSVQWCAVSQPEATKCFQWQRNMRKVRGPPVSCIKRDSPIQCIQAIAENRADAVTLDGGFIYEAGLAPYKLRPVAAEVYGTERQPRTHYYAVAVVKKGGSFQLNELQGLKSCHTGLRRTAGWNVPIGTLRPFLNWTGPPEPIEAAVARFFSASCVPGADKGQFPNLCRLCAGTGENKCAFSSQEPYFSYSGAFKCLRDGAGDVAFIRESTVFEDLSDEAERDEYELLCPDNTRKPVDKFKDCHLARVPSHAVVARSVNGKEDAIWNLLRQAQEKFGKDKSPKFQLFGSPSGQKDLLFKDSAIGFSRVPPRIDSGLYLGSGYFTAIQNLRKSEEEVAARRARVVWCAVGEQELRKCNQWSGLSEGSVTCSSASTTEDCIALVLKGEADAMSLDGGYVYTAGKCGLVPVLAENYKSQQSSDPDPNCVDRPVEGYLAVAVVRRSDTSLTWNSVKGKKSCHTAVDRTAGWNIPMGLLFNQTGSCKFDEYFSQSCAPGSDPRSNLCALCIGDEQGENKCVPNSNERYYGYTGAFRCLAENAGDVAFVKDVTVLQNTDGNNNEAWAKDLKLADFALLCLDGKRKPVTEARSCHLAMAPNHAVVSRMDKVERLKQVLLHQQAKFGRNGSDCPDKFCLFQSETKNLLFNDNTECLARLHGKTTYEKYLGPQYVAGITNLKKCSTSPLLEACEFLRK
T3 sequence (P01317 25-54 limits assumed): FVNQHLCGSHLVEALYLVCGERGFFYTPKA
T3 sequence (P01317 85-105 limits assumed): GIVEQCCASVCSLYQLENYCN

Consider `NCCCN` [1,3-diaminopropane], for which the inhibition index is given as 0.7 (0.1) in assay [1] (setting [4]); 31.5 (12.0) in assay [2] (second HLF column); 1.3 (0.3) on Bovine insulin; 0.7 (0.3) in assay [3] (compound 10,000X); 7.7 in assay [3] (compound 50,000X).
Regarding `NCCCCN` [1,4-diaminobutane], the inhibition index in assay [1] (setting [4]) is recorded as 0.8 (0.1); in assay [2] (second HLF column), 34.5 (13.0); on Bovine insulin it was 1.4 (0.4); in assay [3] (compound 10,000X) it was 0.9 (0.3); in assay [3] (compound 50,000X) it was 4.0 (2.3).
As to `NCCCCCN` [1,5-diaminopentane], the inhibition index was 0.9 (0.0) in assay [1] (setting [4]); 28.8 (13.3) in assay [2] (second HLF column); 1.5 (0.6) on Bovine insulin; 0.8 (0.2) in assay [3] (compound 10,000X); 8.3 (4.5) in assay [3] (compound 50,000X).
The corresponding values for `NCCCCCCN` [1,6-diaminohexane] are 0.8 (0.0), 18.0 (4.9), 1.5 (0.3), 0.6 (0.2) and 4.8 (1.5).
For `NCCCCCCCN` [1,7-diaminoheptane], the inhibition index in assay [1] (setting [4]) was 0.6 (0.1); in assay [2] (second HLF column), 11.0 (2.1); at Bovine insulin, 2.7 (1.0); in assay [3] (compound 10,000X), 0.6 (0.2); in assay [3] (compound 50,000X), 1.7 (0.7). Moreover, the “inhibition of insulin aggregation, in words” value at Bovine insulin is “weak inhibitions”.
With `NCCCC(=O)O` [4-aminobuytrate, 4-aminobutyric acid], the inhibition index is 2.0 (0.1) in assay [1] (setting [4]); 9.5 (1.9) in assay [2] (second HLF column); 1.2 (0.3) at Bovine insulin; 0.6 (0.1) in assay [3] (compound 10,000X); 1.2 (0.4) in assay [3] (compound 50,000X).
Take `NCCCCC(=O)O` [5-aminovalerate, 5-aminovaleric acid]: the inhibition index in assay [1] (setting [4]) is 2.7 (0.9); in assay [2] (second HLF column) it was 8.4 (2.6); on Bovine insulin it was 1.2 (0.1); in assay [3] (compound 10,000X), 0.7 (0.1); in assay [3] (compound 50,000X), 1.9 (0.7).
With `NCCCCCC(=O)O` [6-aminocaproate, 6-aminocaproic acid], the inhibition index in assay [1] (setting [4]) is on record as 3.2 (0.3); in assay [2] (second HLF column), 7.9 (3.4); at Bovine insulin, 1.4 (0.2); in assay [3] (compound 10,000X) it was 0.5 (0.1); in assay [3] (compound 50,000X), 1.5 (0.8).
In the case of `NCCCCCCC(=O)O` [7-aminoheptanoate, 7-aminoheptanoic acid], the inhibition index in assay [1] (setting [4]) is listed as 4.9 (0.5); in assay [2] (second HLF column) it was 4.7 (0.7); on Bovine insulin, 2.4 (1.0); in assay [3] (compound 10,000X), 0.5 (0.1); in assay [3] (compound 50,000X), 1.7 (0.4). Moreover, the “inhibition of insulin aggregation, in words” value against Bovine insulin was “weak inhibitions”.
Turning to `O=C(O)CCCCC(=O)O` [adipate, adipic acid], the inhibition index was 4.9 (0.9) in assay [1] (setting [4]); 113.0 in assay [2] (second HLF column); 1.2 (0.7) on Bovine insulin; 1.2 (0.5) in assay [3] (compound 10,000X); 19.6 (17.1) in assay [3] (compound 50,000X).
Turning to `NCCC(=O)O` [beta-alanine], the inhibition index was 2.2 (0.3) in assay [1] (setting [4]); 24.2 (4.4) in assay [2] (second HLF column); 1.1 (0.1) at Bovine insulin; 0.6 (0.1) in assay [3] (compound 10,000X); 1.9 (0.8) in assay [3] (compound 50,000X). Moreover, the “inhibition of lactoferrin (HLF) aggregation, in words” value in assay [2] is “effective inhibitors”.
Turning to `NCCN` [ethylenediamine], the inhibition index was 202.6 (69.7) in assay [1] (setting [4]); 44.5 (13.9) in assay [2] (second HLF column); 0.9 (0.3) at Bovine insulin; 1.8 (0.5) in assay [3] (compound 10,000X); 18.5 in assay [3] (compound 50,000X). For the same molecule, the “inhibition of ADH aggregation, in words” value in assay [1] is given as “effective inhibitors”.
Consider `O=C(O)CCCC(=O)O` [glutarate, glutaric acid], for which the inhibition index is 1.8 (0.4) in assay [1] (setting [4]); 49.7 (28.9) in assay [2] (second HLF column); 1.0 (0.2) at Bovine insulin; 1.4 (0.5) in assay [3] (compound 10,000X); 6.5 (0.3) in assay [3] (compound 50,000X).
For `NCC(=O)O` [glycine], the inhibition index is given as 54.3 (4.5) in assay [1] (setting [4]), 1.5 (0.1) in assay [2] (second HLF column), 1.0 (0.3) at Bovine insulin and 0.8 (0.2) in assay [3] (compound 10,000X). In addition, the “inhibition of ADH aggregation, in words” value in assay [1] is “Potent inhibition; also recorded: effective inhibitors”.
As for `O=C([O-])CC(=O)[O-].[Na+].[Na+]` [malonate, sodium malonate], the inhibition index in assay [1] (setting [4]) is 18.9 (6.6); in assay [2] (second HLF column), 1714.1; on Bovine insulin, 1.2 (0.5); in assay [3] (compound 10,000X), 2.4 (0.5); in assay [3] (compound 50,000X), 9.
As to `O=C(O)C(=O)O` [oxalate, oxalic acid], the “inhibition of ADH aggregation, in words” value in assay [1] is reported as “most potent inhibitor; also recorded: effective inhibitors”. Besides, the inhibition index was 666.9 in assay [2] (second HLF column), 0.9 (0.6)^3 on Bovine insulin, 1.9 (0.5) in assay [3] (compound 10,000X) and 6.2 (3.8) in assay [3] (compound 50,000X).
As for `O=C(O)CCCCCC(=O)O` [pimelate, pimelic acid], the inhibition index in assay [1] (setting [4]) was 9.0 (1.3); in assay [2] (second HLF column), 78.9 (68.2); at Bovine insulin it was 1.4 (0.6); in assay [3] (compound 10,000X), 1.4 (0.4); in assay [3] (compound 50,000X), 6.7 (0.1).
The corresponding values for `O=C(O)CCCCCCC(=O)O` [suberate, suberic acid] are 15.5 (1.4), 95.4 (34.6), 1.6 (0.3), 1.1 (0.2) and 14.1 (2.1).
Take `O=C(O)CCC(=O)O` [succinate, succinic acid]: the inhibition index in assay [1] (setting [4]) is recorded as 2.7 (0.7); in assay [2] (second HLF column), 33.7 (11.9); on Bovine insulin it was 1.0 (0.3); in assay [3] (compound 10,000X) it was 2.1 (0.5); in assay [3] (compound 50,000X) it was 9.6.
Regarding `NCC(=O)NCC(=O)NCC(=O)O` [triglycine] (H-Gly-Gly-Gly-OH), the inhibition index in assay [1] (setting [5]) was 5.0 (1.4); in assay [1] (setting [4]), 187.6 (46.1); in assay [2] (first HLF column), 0.2 (0.1); in assay [2] (second HLF column) it was 5.7 (4.0); at Bovine insulin, 1.4 (0.1); in assay [3] (compound 1,000X) it was 1.0 (0.2). Also, the inhibition index is on record as 0.7 (0.2) in assay [3] (compound 10,000X) and 1.0 in assay [3] (compound 50,000X). Also, in assay [3], the “inhibition of citrate synthase aggregation, in words” value was “Potent inhibitors”.
With Glu-Glu, the inhibition index in assay [1] (setting [5]) is on record as 1.4 (0.2); in assay [1] (setting [4]), 5.3 (1.2); in assay [2] (first HLF column), 9.8 (0.8); in assay [2] (second HLF column), 2.1; on Bovine insulin, 1.0 (0.1); in assay [3] (compound 1,000X), 0.8 (0.1). The inhibition index in assay [3] (compound 10,000X) is on record as 1.5 (0.1); in assay [3] (compound 50,000X), 1430.3. The “inhibition of citrate synthase aggregation, in words” value in assay [3] is “Potent inhibitors”.
